Test results taken from US20250223276A1, “Substituted Pyrrolidinyl And Piperidinyl Compounds And Related Methods Of Treatment” (Alkermes, Inc., priority 2022, published 2025).

Target: T1, human orexin-2 receptor (OX2R) (Homo sapiens, UniProt O43614)
T1 construct: expressed in transfected cells
T1 sequence (O43614 1-444): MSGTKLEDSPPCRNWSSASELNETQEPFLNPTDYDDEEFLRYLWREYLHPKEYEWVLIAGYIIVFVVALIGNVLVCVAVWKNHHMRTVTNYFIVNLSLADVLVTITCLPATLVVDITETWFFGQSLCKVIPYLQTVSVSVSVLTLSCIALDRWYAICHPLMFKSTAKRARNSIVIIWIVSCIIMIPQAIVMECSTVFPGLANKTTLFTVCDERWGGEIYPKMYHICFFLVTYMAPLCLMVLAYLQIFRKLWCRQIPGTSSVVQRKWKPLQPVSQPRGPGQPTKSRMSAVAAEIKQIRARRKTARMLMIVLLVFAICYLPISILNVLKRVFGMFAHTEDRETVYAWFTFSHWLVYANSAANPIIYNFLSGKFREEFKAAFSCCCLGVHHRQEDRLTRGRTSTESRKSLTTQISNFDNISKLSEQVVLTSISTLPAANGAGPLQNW
Assay: Human OX2R IP1 assay
Format: cell-based
Details: T-Rex CHO cells stably overexpressing human OX2R; IP1 (inositol monophosphate) accumulation, HTRF; 1 hr at 37 degrees C
Description: T-Rex CHO cells stably overexpressing the human orexin-2 receptor (OX2R) are induced overnight with 1 μg/mL of doxycycline in a T225 flask. 24 hours post induction, cells are lifted with accutase and plated into a 384-well proxy plate at 30,000 cells/well. Cells are then treated with different test compounds in 1× stimulation buffer containing 10 mM Hepes, 1 mM CaCl2), 0.5 mM MgCl2, 4.2 mM KCl, 146 mM NaCl, 5.5 mM glucose, and 50 mM LiCl, pH 7.4, for 1 hr at 37 degrees C. Following incubation, the reaction is terminated by the addition of detection mix, which is composed of IP1-d2 and anti-IP1-cryptate diluted in lysis buffer as well as 1× stimulation buffer. The plates are allowed to incubate for 1 hour at room temperature and are then read in the En Vision® multimode plate reader, measuring inositol phosphate levels.
Cisbio IP1 is a cell-based functional assay quantifying the accumulation of inositol monophosphate (IP), a metabolite released as a result of orexin 2 receptor activation through the phospholipase C-Gq signaling pathway. This is a competitive immunoassay in which the IP1 produced by the cells upon receptor activation competes with the IP1 analog coupled to the d2 fluorophore (acceptor) for binding to an anti-IP1 monoclonal antibody labeled with Eu cryptate (donor). The measured HTRF-FRET based signal is inversely proportional to the IP1 concentration produced.
The EC50 values reported in Table 2 were obtained according to the human OX2R IP1 assay described above. Data are the mean EC50 values±S.E.M.

Row | Structure (SMILES) | EC50 [nM]
1 | CCS(=O)(=O)N[C@H]1CCN(c2cccnn2)C[C@H]1CO[C@H]1CC[C@@H](c2cccc(F)c2)CC1 [Compound 19] | < 100
2 | O=S(=O)(N[C@H]1CCN(c2cccnn2)C[C@H]1CO[C@H]1CC[C@@H](c2cccc(F)c2)CC1)N1CCC1 [Compound 8] | 100 to 1000
3 | CNS(=O)(=O)N[C@H]1CCN(c2cccnn2)C[C@H]1CO[C@H]1CC[C@@H](c2cccc(F)c2)CC1 [Compound 3] | < 100
4 | CN1CC(NS(=O)(=O)N[C@H]2CCN(c3cccnn3)C[C@H]2CO[C@H]2CC[C@@H](c3cccc(F)c3)CC2)C1 [Compound 33] | > 1000
5 | CS(=O)(=O)N[C@H]1CCN(C(=O)C2(F)CCC2)C[C@H]1CO[C@H]1CC[C@@H](c2cccc(F)c2)CC1 [Compound 6] | < 100
6 | CC(C)N(C)[C@@H]1CCN(S(=O)(=O)N[C@H]2CCN(c3cccnn3)C[C@H]2CO[C@H]2CC[C@@H](c3cccc(F)c3)CC2)C1 [Compound 57] | > 1000
7 | CCN(CC)S(=O)(=O)N[C@H]1CCN(c2cccnn2)C[C@H]1CO[C@H]1CC[C@@H](c2cccc(F)c2)CC1 [Compound 14] | > 1000
8 | CS(=O)(=O)N[C@H]1CCN(C(=O)[C@H]2CCOC2)C[C@H]1CO[C@H]1CC[C@@H](c2cccc(F)c2)CC1 [Compound 7] | < 100
9 | CN(C)S(=O)(=O)N[C@H]1CCN(C(=O)N2CC(F)(F)C2)C[C@H]1CO[C@H]1CC[C@@H](c2cccc(F)c2)CC1 [Compound 62] | < 100
10 | CN(C)S(=O)(=O)N[C@H]1CCN(C(=O)C2(F)CC2)C[C@H]1CO[C@H]1CC[C@@H](c2cccc(F)c2)CC1 [Compound 47] | < 100
